ChEMBL document CHEMBL1201862, “PubChem BioAssay data set” (2004)
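Dose response: 5 concentrations. Exposure: 48 h. Format: 96-well plates. Endpoint: linear interpolation; highest concentration if not reached. Here, GI50 denotes the concentration required for 50% inhibition of growth.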 Activity calls are given as the source filed them. No stated cut-off is given here; in the data, active = GI50 up to about 1.1 µM and inactive = higher.

How the values were obtained:
Test in all cases: NCI tumour cell line growth inhibition, 48 h
786-0 = test system: 786-0
DU-145 = test system: DU-145
HOP-62 = test system: HOP-62
HT-29 = test system: HT-29
K562 = test system: K562
M14 = test system: M14
MCF7 = test system: MCF7
NCI-H226 = test system: NCI-H226
NCI-H522 = test system: NCI-H522
NCI/ADR-RES = test system: NCI/ADR-RES
OVCAR-8 = test system: OVCAR-8
PC-3 = test system: PC-3
SF-268 = test system: SF-268
SF-539 = test system: SF-539
SN12C = test system: SN12C
SR = test system: SR
SW-620 = test system: SW-620
U-251 = test system: U-251
UO-31 = test system: UO-31
HOP-92 = test system: HOP-92

Compound | GI50 (786-0) | GI50 (DU-145) | GI50 (HOP-62) | GI50 (HT-29) | GI50 (K562) | GI50 (M14) | GI50 (MCF7) | GI50 (NCI-H226) | GI50 (NCI-H522) | GI50 (NCI/ADR-RES) | GI50 (OVCAR-8) | GI50 (PC-3) | GI50 (SF-268) | GI50 (SF-539) | GI50 (SN12C) | GI50 (SR) | GI50 (SW-620) | GI50 (U-251) | GI50 (UO-31) | GI50 (HOP-92)
CC1=C(C(=O)OCCc2ccc([N+](=O)[O-])cc2)C(c2ccccc2C(F)(F)F)C(C(=O)OC(C)C)=C(C)N1 (centres undefined) | 4.16 µM (inactive) | 9.16 µM (inactive) | 3.51 µM (inactive) | 10.1 µM (inactive) | 2.41 µM (inactive) | 2.41 µM (inactive) | 3.36 µM (inactive) | 3.15 µM (inactive) | 3.31 µM (inactive) | 2.75 µM (inactive) | 4.04 µM (inactive) | 1.98 µM (inactive) | 3.53 µM (inactive) | 3.82 µM (inactive) | 3.12 µM (inactive) | 3.11 µM (inactive) | 3.68 µM (inactive) | 3.52 µM (inactive) | 4.19 µM (inactive) | 
C/C(=C\C(=O)O)C(=O)N(C)c1ccccc1I | > 100 µM (inactive) | > 100 µM (inactive) | > 100 µM (inactive) |  | > 100 µM (inactive) | > 100 µM (inactive) | > 100 µM (inactive) | > 100 µM (inactive) |  | > 100 µM (inactive) | > 100 µM (inactive) | > 100 µM (inactive) | > 100 µM (inactive) |  | > 100 µM (inactive) | > 100 µM (inactive) | > 100 µM (inactive) | > 100 µM (inactive) | > 100 µM (inactive) | > 100 µM (inactive)
O=S(=O)(N/C(=N\O)Nc1ccc(Cl)cc1)c1ccc(S(=O)(=O)c2ccccc2)s1 | 29.7 µM (inactive) | 19.5 µM (inactive) | 26.5 µM (inactive) | 22.3 µM (inactive) | 16.6 µM (inactive) | 18.5 µM (inactive) | 27 µM (inactive) | 14.6 µM (inactive) | 16.9 µM (inactive) | 27.5 µM (inactive) | 24.3 µM (inactive) | 25.9 µM (inactive) | 23.1 µM (inactive) | 24.5 µM (inactive) | 17.4 µM (inactive) |  | 30.1 µM (inactive) | 20.8 µM (inactive) | 19.4 µM (inactive) | 6.92 µM (inactive)
O=C(/C=C/c1ccsc1)c1ccsc1 | 21.4 µM (inactive) | > 100 µM (inactive) | > 100 µM (inactive) | 26.8 µM (inactive) | > 10 µM (inactive) | 33.7 µM (inactive) | 13.8 µM (inactive) | 17 µM (inactive) |  | > 100 µM (inactive) | 26.6 µM (inactive) | 19.8 µM (inactive) | 44.8 µM (inactive) | 17.5 µM (inactive) | 19.5 µM (inactive) | 19.5 µM (inactive) | 24.8 µM (inactive) | 18.1 µM (inactive) | 15.4 µM (inactive) | 
CC(=O)Nc1ccc(-c2nc3ccccc3s2)cc1C | 52.6 µM (inactive) | 22.2 µM (inactive) | 40.6 µM (inactive) | > 100 µM (inactive) |  | 68.7 µM (inactive) | 33.5 µM (inactive) | 26.9 µM (inactive) |  | 42.2 µM (inactive) | 53.1 µM (inactive) | 29 µM (inactive) | 64.4 µM (inactive) | 50.8 µM (inactive) |  | 27.7 µM (inactive) | > 100 µM (inactive) | 71.6 µM (inactive) | 17.9 µM (inactive) | > 100 µM (inactive)
C[n+]1ccccc1/C=C/c1ccc2c(c1)OCO2 | > 10 µM (inactive) | > 10 µM (inactive) | > 10 µM (inactive) | > 10 µM (inactive) | > 10 µM (inactive) | > 10 µM (inactive) | > 10 µM (inactive) | > 10 µM (inactive) | > 10 µM (inactive) | > 10 µM (inactive) | > 10 µM (inactive) | > 10 µM (inactive) | > 10 µM (inactive) | > 10 µM (inactive) | > 10 µM (inactive) | > 10 µM (inactive) | > 10 µM (inactive) | > 10 µM (inactive) |  | 
COc1ccc(CCN2C(=O)CC34C=CC(CC3C2=O)O4)cc1OC (centres undefined) | > 100 µM (inactive) | > 100 µM (inactive) | > 100 µM (inactive) | > 100 µM (inactive) | > 100 µM (inactive) | > 100 µM (inactive) | > 100 µM (inactive) |  |  | > 100 µM (inactive) | > 100 µM (inactive) | > 100 µM (inactive) |  | > 100 µM (inactive) | > 100 µM (inactive) | > 100 µM (inactive) | > 100 µM (inactive) | > 100 µM (inactive) | > 100 µM (inactive) | 97.5 µM (inactive)
Oc1cccc(-c2cc(O)c3cc4c(cc3n2)OCO4)c1 | 5.52 µM (inactive) | 0.302 µM (active) | 1.6 µM (inactive) | 3.37 µM (inactive) | 0.505 µM (active) | 3.58 µM (inactive) | 3.1 µM (inactive) | 2.9 µM (inactive) | 0.284 µM (active) | 1.31 µM (inactive) | 2.85 µM (inactive) | 1.55 µM (inactive) | 1.71 µM (inactive) | 1.7 µM (inactive) | 3.03 µM (inactive) | 0.283 µM (active) | 3.21 µM (inactive) | 1.43 µM (inactive) | 4.23 µM (inactive) | 
CSc1ncc2c(C#N)c3n(C)c4ccccc4n3c(=O)c2n1 | > 100 µM (inactive) | > 100 µM (inactive) | > 100 µM (inactive) | > 100 µM (inactive) | > 100 µM (inactive) | > 100 µM (inactive) | > 100 µM (inactive) | > 100 µM (inactive) |  | > 100 µM (inactive) | > 100 µM (inactive) | > 100 µM (inactive) | > 100 µM (inactive) | > 100 µM (inactive) | > 100 µM (inactive) | > 100 µM (inactive) | > 100 µM (inactive) | > 100 µM (inactive) | > 100 µM (inactive) | > 100 µM (inactive)
N#CCOc1cccc(C2(N3CC=CCC3)CCCCC2)c1 | > 100 µM (inactive) | > 100 µM (inactive) | > 100 µM (inactive) | > 100 µM (inactive) | 43 µM (inactive) | > 100 µM (inactive) | > 100 µM (inactive) | > 100 µM (inactive) | 57.8 µM (inactive) | > 100 µM (inactive) | 86.9 µM (inactive) | > 100 µM (inactive) | > 100 µM (inactive) | > 100 µM (inactive) | > 100 µM (inactive) | > 100 µM (inactive) | 94 µM (inactive) | > 100 µM (inactive) | > 100 µM (inactive) | 
COc1ccc(/C=C/c2cnnc3ccccc23)cc1OC | > 10 µM (inactive) | > 10 µM (inactive) | > 10 µM (inactive) | > 10 µM (inactive) | > 10 µM (inactive) | > 10 µM (inactive) | > 10 µM (inactive) | > 10 µM (inactive) | > 10 µM (inactive) | > 10 µM (inactive) | > 10 µM (inactive) | > 10 µM (inactive) | > 10 µM (inactive) | > 10 µM (inactive) | > 10 µM (inactive) |  | > 10 µM (inactive) | > 10 µM (inactive) | 0.0374 µM (active) | 3.7 µM (inactive)
C[N+](C)(C)CCC(=O)N1C/C(=C\c2ccccc2)C(=O)/C(=C/c2ccccc2)C1 | 2.38 µM (inactive) | 16.8 µM (inactive) | 18.1 µM (inactive) | 2.79 µM (inactive) | 1.21 µM (inactive) | 2.72 µM (inactive) | 1.45 µM (inactive) | 10 µM (inactive) | 2.25 µM (inactive) | 1.64 µM (inactive) | 3.52 µM (inactive) | 2.49 µM (inactive) | 5.14 µM (inactive) | 5.06 µM (inactive) | 2.08 µM (inactive) |  | 0.904 µM (active) | 3.03 µM (inactive) | 18.9 µM (inactive) | 20.6 µM (inactive)
CC1=NN(c2nc(N)nc(COc3ccc(N)cc3)n2)C(C)(C)C1 | > 100 µM (inactive) | > 100 µM (inactive) | > 100 µM (inactive) | > 100 µM (inactive) | > 100 µM (inactive) | > 100 µM (inactive) | > 100 µM (inactive) | > 100 µM (inactive) |  | > 100 µM (inactive) | > 100 µM (inactive) | > 100 µM (inactive) | > 100 µM (inactive) | > 100 µM (inactive) |  | > 100 µM (inactive) | > 100 µM (inactive) | > 100 µM (inactive) | > 100 µM (inactive) | > 100 µM (inactive)
CC[C@H](C)[C@H](NC(=O)[C@@]1(O)[C@H](O)[C@]2(CC)C=CCN3CC[C@@]4(c5cc(Br)c(OC)cc5N(C)[C@@H]14)[C@@H]32)C(=O)OC | 63.5 µM (inactive) | > 100 µM (inactive) | 32.2 µM (inactive) | 11.6 µM (inactive) | 67.1 µM (inactive) | 22.1 µM (inactive) | 35.6 µM (inactive) |  | 27.5 µM (inactive) | 57.8 µM (inactive) | 39.4 µM (inactive) | 76.7 µM (inactive) | 27.7 µM (inactive) | 27.5 µM (inactive) | 27.2 µM (inactive) | 27.2 µM (inactive) | 29 µM (inactive) | 27.8 µM (inactive) | 44.4 µM (inactive) | 
CC(=O)c1c2c(cc3c1CC1(Cc4cc5c(cc4C1)CCC5)C3)CCC2 | > 100 µM (inactive) | > 100 µM (inactive) | > 100 µM (inactive) | 78.2 µM (inactive) | > 100 µM (inactive) | > 100 µM (inactive) | > 100 µM (inactive) |  | > 100 µM (inactive) | > 100 µM (inactive) | > 100 µM (inactive) | > 100 µM (inactive) | > 100 µM (inactive) | > 100 µM (inactive) |  | > 100 µM (inactive) | > 100 µM (inactive) | > 100 µM (inactive) | > 100 µM (inactive) | > 100 µM (inactive)
